From ChEMBL document CHEMBL1201862, “PubChem BioAssay data set” (2004)
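Step 1: Grow cells in 96-well plates. Step 2: Expose to compound for 48 hours at 5 concentrations. Step 3: Interpolate endpoints linearly; if unreached, use highest concentration. GI50 is the concentration that inhibits growth by half.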 Activity calls are given as the source filed them. Cut-off read from the data, not from the text of the source: active = GI50 up to about 1.1 µM and inactive = higher.

What was measured:
Experiment in all cases: NCI-60 cell line screen, 48 h
[1] = tested on: 786-0
[2] = tested on: A498
[3] = tested on: A549
[4] = tested on: ACHN
[5] = tested on: BT-549
[6] = tested on: CAKI-1
[7] = tested on: CCRF-CEM
[8] = tested on: COLO 205
[9] = tested on: DU-145
[10] = tested on: EKVX
[11] = tested on: HCC 2998
[12] = tested on: HCT-116
[13] = tested on: HCT-15
[14] = tested on: HOP-62
[15] = tested on: HOP-92
[16] = tested on: HT-29
[17] = tested on: Hs-578T
[18] = tested on: IGROV-1
[19] = tested on: K562
[20] = tested on: KM12
[21] = tested on: LOX IMVI
[22] = tested on: M14
[23] = tested on: MCF7
[24] = tested on: MDA-MB-231
[25] = tested on: MDA-MB-435
[26] = tested on: MDA-N
[27] = tested on: MOLT-4
[28] = tested on: Malme-3M
[29] = tested on: NCI-H226
[30] = tested on: NCI-H23
[31] = tested on: NCI-H460
[32] = tested on: NCI-H522
[33] = tested on: NCI/ADR-RES
[34] = tested on: OVCAR-3
[35] = tested on: OVCAR-4
[36] = tested on: OVCAR-5
[37] = tested on: OVCAR-8
[38] = tested on: PC-3
[39] = tested on: RPMI-8226
[40] = tested on: RXF 393
[41] = tested on: SF-268
[42] = tested on: SF-295
[43] = tested on: SF-539
[44] = tested on: SK-MEL-28
[45] = tested on: SK-MEL-2
[46] = tested on: SK-MEL-5
[47] = tested on: SK-OV-3
[48] = tested on: SN12C
[49] = tested on: SNB-19
[50] = tested on: SNB-75
[51] = tested on: SW-620
[52] = tested on: T47D
[53] = tested on: TK-10
[54] = tested on: U-251
[55] = tested on: UACC-257
[56] = tested on: UACC-62
[57] = tested on: UO-31
[58] = tested on: HL-60

CC(C)CCNC(=O)c1ccc(CNC(=O)/C=C/c2csc(-c3ccccc3)n2)cc1
GI50 [1]: 32.7 µM (inactive)
GI50 [2]: 19.9 µM (inactive)
GI50 [3]: 40.1 µM (inactive)
GI50 [4]: 52.7 µM (inactive)
GI50 [5]: 78.5 µM (inactive)
GI50 [6]: 18.7 µM (inactive)
GI50 [7]: > 100 µM (inactive)
GI50 [8]: > 100 µM (inactive)
GI50 [9]: > 100 µM (inactive)
GI50 [10]: > 100 µM (inactive)
GI50 [11]: > 100 µM (inactive)
GI50 [12]: 46.7 µM (inactive)
GI50 [13]: 95.5 µM
GI50 [14]: 17.9 µM (inactive)
GI50 [15]: 27.7 µM (inactive)
GI50 [16]: 31.1 µM (inactive)
GI50 [17]: 32.6 µM (inactive)
GI50 [18]: 34.2 µM (inactive)
GI50 [19]: > 100 µM (inactive)
GI50 [20]: > 100 µM (inactive)
GI50 [21]: > 100 µM (inactive)
GI50 [22]: > 100 µM (inactive)
GI50 [23]: > 100 µM (inactive)
GI50 [24]: 33 µM (inactive)
GI50 [25]: > 100 µM (inactive)
GI50 [26]: > 100 µM (inactive)
GI50 [27]: > 100 µM (inactive)
GI50 [28]: 29.9 µM (inactive)
GI50 [29]: 33.3 µM (inactive)
GI50 [30]: > 100 µM (inactive)
GI50 [31]: > 100 µM (inactive)
GI50 [32]: 41 µM (inactive)
GI50 [33]: 36.9 µM (inactive)
GI50 [34]: > 100 µM (inactive)
GI50 [35]: 14.5 µM (inactive)
GI50 [36]: > 100 µM (inactive)
GI50 [37]: 25.8 µM (inactive)
GI50 [38]: > 100 µM (inactive)
GI50 [39]: > 100 µM (inactive)
GI50 [40]: 17.3 µM (inactive)
GI50 [41]: 35.4 µM (inactive)
GI50 [42]: 33.9 µM (inactive)
GI50 [43]: > 100 µM (inactive)
GI50 [44]: 57.7 µM (inactive)
GI50 [45]: > 100 µM (inactive)
GI50 [46]: 29.5 µM (inactive)
GI50 [47]: 40 µM (inactive)
GI50 [48]: 64.3 µM (inactive)
GI50 [49]: 17.8 µM (inactive)
GI50 [50]: 14.4 µM (inactive)
GI50 [51]: > 100 µM (inactive)
GI50 [52]: 33.2 µM (inactive)
GI50 [53]: 53.2 µM (inactive)
GI50 [54]: 29.4 µM (inactive)
GI50 [55]: 96.8 µM (inactive)
GI50 [56]: > 100 µM (inactive)
GI50 [57]: 19.6 µM (inactive)

CC1=C(C)C(=O)C(C2=CC(=O)c3ccccc3C2=O)=C(C2=CC(=O)c3ccccc3C2=O)C1=O
GI50 [1]: 7.46 µM (inactive)
GI50 [2]: 23.4 µM (inactive)
GI50 [3]: 19.4 µM (inactive)
GI50 [4]: 3.27 µM (inactive)
GI50 [5]: 18.7 µM (inactive)
GI50 [6]: 2.95 µM (inactive)
GI50 [8]: 1.99 µM (inactive)
GI50 [9]: 3.21 µM (inactive)
GI50 [10]: 19.3 µM (inactive)
GI50 [11]: 6.95 µM (inactive)
GI50 [12]: 3.6 µM (inactive)
GI50 [13]: 0.646 µM
GI50 [58]: 0.234 µM (active)
GI50 [14]: 12.4 µM (inactive)
GI50 [16]: 0.684 µM (active)
GI50 [17]: 3.62 µM (inactive)
GI50 [18]: 7.31 µM (inactive)
GI50 [20]: 10.4 µM (inactive)
GI50 [21]: 1.39 µM (inactive)
GI50 [22]: 8.49 µM (inactive)
GI50 [23]: 1.88 µM (inactive)
GI50 [24]: 4.52 µM (inactive)
GI50 [25]: 0.352 µM (active)
GI50 [26]: 0.82 µM (active)
GI50 [28]: 0.514 µM (active)
GI50 [29]: 13.1 µM (inactive)
GI50 [30]: 8.13 µM (inactive)
GI50 [31]: 10.1 µM (inactive)
GI50 [32]: 2.85 µM (inactive)
GI50 [33]: 1.68 µM (inactive)
GI50 [35]: 5.04 µM (inactive)
GI50 [36]: 24.3 µM (inactive)
GI50 [37]: 3.64 µM (inactive)
GI50 [38]: 5.74 µM (inactive)
GI50 [40]: 2.52 µM (inactive)
GI50 [41]: 8.15 µM (inactive)
GI50 [42]: 12.3 µM (inactive)
GI50 [43]: 6.35 µM (inactive)
GI50 [44]: 7.62 µM (inactive)
GI50 [45]: 5.9 µM (inactive)
GI50 [46]: 1.4 µM (inactive)
GI50 [47]: 20.2 µM (inactive)
GI50 [48]: 2.61 µM (inactive)
GI50 [49]: 4.54 µM (inactive)
GI50 [50]: 13.2 µM (inactive)
GI50 [51]: 2.79 µM (inactive)
GI50 [52]: 6.95 µM (inactive)
GI50 [53]: 3.38 µM (inactive)
GI50 [54]: 6.43 µM (inactive)
GI50 [55]: 8.2 µM (inactive)
GI50 [56]: 7.19 µM (inactive)
GI50 [57]: 2.84 µM (inactive)
